Results published in ChEMBL document CHEMBL1201862, “PubChem BioAssay data set” (2004).
Several values for one entry are separate records, joined by “and”; a condition that tells them apart may be missing. Equal entries are not always repeated. Blank lines part the entries; values can stand above or below the molecule they belong to. Activity calls are given as the source filed them.

How the values were obtained:
[1] = biological target: Serine/threonine-protein phosphatase PP1-alpha catalytic subunit (Homo sapiens, UniProt P62136); test: PP1 phosphatase inhibitors, dose response, biochemical, fluorescence (AID 2394)
[2] = biological target: T1, Sentrin-specific protease 6 (Homo sapiens, UniProt Q9GZR1); type: functional;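 further: Luminescence-based dose-response confirmatory assay of SENP6 inhibition, following up an ultra-high-throughput screen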
T1 sequence (Q9GZR1 whole entry): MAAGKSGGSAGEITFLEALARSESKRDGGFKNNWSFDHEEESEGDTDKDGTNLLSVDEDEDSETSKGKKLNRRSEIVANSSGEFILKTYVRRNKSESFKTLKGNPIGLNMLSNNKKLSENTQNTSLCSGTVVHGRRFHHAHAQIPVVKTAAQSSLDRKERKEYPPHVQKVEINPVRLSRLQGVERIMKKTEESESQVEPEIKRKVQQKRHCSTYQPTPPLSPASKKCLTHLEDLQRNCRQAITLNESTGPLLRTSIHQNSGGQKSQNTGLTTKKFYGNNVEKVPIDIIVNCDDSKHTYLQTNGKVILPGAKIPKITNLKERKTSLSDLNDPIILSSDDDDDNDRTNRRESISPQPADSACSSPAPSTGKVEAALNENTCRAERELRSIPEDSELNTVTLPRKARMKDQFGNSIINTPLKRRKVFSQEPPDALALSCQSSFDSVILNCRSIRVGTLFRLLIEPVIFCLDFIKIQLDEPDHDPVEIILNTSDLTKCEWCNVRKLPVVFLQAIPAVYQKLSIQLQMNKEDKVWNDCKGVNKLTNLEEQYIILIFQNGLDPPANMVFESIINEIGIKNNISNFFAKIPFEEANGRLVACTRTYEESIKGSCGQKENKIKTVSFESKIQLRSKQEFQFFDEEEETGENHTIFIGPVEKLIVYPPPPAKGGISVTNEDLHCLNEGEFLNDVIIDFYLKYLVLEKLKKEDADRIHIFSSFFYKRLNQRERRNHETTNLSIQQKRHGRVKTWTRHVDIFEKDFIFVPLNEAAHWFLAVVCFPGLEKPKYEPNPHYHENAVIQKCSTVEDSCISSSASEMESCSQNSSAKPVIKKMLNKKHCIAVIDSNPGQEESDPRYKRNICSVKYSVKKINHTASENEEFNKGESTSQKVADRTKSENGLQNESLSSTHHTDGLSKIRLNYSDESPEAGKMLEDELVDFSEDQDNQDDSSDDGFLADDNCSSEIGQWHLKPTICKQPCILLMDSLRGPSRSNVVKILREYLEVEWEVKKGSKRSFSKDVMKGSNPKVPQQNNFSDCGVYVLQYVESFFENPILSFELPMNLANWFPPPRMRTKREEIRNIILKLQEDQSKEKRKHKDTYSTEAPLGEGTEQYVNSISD

[3] = biological target: T2, Sentrin-specific protease 8 (Homo sapiens, UniProt Q96LD8); type: functional;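 further: luminescence read-out of SENP8 inhibition, dose-response confirmation following an ultra-high-throughput screen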
T2 sequence (Q96LD8 whole entry): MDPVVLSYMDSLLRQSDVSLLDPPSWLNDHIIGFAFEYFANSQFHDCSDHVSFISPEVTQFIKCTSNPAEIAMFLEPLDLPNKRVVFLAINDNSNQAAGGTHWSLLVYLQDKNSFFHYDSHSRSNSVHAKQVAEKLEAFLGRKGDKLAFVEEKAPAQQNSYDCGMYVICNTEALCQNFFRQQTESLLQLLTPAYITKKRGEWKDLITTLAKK

[4] = biological target: Ras and Rab interactor 1/Tyrosine-protein kinase ABL1 (Homo sapiens, UniProt P00519+Q13671); type: functional;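 further: biochemical TR-FRET dose-response test measuring inhibition of binding between Rin1 and Abl proteins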
[5] = inhibitors of intracellular T. cruzi replication, confirmation, NIH3T3 host cells, beta-gal luminescence (AID 2044); type: functional, cell-based;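 further: intracellular parasites grown in NIH/3T3 mouse fibroblasts as host cells; luminescent beta-galactosidase reporter signal from transgenic T. cruzi replicating inside host cells; inhibitors lower the luminescence signal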
[6] = biological target: Heat shock protein HSP 90-alpha (Homo sapiens, UniProt P07900); test: Luminescence-based dose response biochemical high throughput screening assay for inhibitors of the Heat Shock Protein 90 (HSP90). [Related pubchem assays: 1831 (Summary AID.), 1846 (Confirmation screen.), 1789 (Primary screen.)]
[7] = biological target: T3, Dual specificity protein phosphatase 6 (Rattus norvegicus, UniProt Q64346); type: functional;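 further: confirmatory in vitro dose-response testing of MKP-3 inhibition; recombinant His-tagged MKP-3 made in E. coli BL21 with OMFP substrate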
T3 sequence (Q64346 whole entry): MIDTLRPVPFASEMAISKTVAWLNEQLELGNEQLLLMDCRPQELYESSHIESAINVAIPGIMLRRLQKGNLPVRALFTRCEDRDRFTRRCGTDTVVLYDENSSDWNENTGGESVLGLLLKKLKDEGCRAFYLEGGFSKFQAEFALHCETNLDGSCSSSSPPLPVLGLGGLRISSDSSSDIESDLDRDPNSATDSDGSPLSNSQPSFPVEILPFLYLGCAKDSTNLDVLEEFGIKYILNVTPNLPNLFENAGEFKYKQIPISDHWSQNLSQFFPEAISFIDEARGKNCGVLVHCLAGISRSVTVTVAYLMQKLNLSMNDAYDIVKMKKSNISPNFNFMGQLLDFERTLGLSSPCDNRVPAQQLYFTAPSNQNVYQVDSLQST

[8] = biological target: Small ubiquitin-related modifier 2 (Homo sapiens, UniProt P61956); test: SUMO2–SIM peptide binding inhibitors, dose response, selectivity assay for SUMO1 interaction inhibitor project, biochemical, fluorescence polarization, uHTS hits (AID 624385); type: functional; details: read-out: IC50_Mean
[9] = biological target: Small ubiquitin-related modifier 1 (Homo sapiens, UniProt P63165); test: inhibitors of SUMO1 peptide binding, dose response, biochemical, fluorescence polarization, uHTS hits (AID 624382); type: functional; details: read-out: IC50_Mean
[10] = biological target: NAD-dependent protein deacylase sirtuin-5, mitochondrial (Homo sapiens, UniProt Q9NXA8); test: SIRT5 desuccinylase inhibitors, dose response, biochemical, fluorescence imaging, cherry-pick, set 5 (AID 720591);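 further: desuccinylation of succinyl peptide AMC substrate read as fluorescence after trypsin release; potency of inhibitors that lower fluorescence and may act on trypsin instead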
Sequence of NAD-dependent protein deacylase sirtuin-5, mitochondrial (Q9NXA8 whole entry): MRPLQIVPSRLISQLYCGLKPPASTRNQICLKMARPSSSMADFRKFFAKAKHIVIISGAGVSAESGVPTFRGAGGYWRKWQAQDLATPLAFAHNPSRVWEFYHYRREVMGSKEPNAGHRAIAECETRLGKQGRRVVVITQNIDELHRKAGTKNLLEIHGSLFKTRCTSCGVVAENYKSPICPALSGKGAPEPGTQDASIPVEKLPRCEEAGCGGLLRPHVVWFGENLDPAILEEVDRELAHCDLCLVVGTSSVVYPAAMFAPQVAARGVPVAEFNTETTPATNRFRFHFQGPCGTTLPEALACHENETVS

Sequence of Small ubiquitin-related modifier 2 (P61956 whole entry): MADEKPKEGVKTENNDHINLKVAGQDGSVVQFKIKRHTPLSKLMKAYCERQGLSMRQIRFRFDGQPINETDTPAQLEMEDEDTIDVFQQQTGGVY
Sequence of Small ubiquitin-related modifier 1 (P63165 whole entry): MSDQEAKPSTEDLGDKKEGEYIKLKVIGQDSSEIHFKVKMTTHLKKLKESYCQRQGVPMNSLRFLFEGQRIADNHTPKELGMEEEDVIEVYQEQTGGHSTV
Sequence of Ras and Rab interactor 1/Tyrosine-protein kinase ABL1 (P00519 whole entry): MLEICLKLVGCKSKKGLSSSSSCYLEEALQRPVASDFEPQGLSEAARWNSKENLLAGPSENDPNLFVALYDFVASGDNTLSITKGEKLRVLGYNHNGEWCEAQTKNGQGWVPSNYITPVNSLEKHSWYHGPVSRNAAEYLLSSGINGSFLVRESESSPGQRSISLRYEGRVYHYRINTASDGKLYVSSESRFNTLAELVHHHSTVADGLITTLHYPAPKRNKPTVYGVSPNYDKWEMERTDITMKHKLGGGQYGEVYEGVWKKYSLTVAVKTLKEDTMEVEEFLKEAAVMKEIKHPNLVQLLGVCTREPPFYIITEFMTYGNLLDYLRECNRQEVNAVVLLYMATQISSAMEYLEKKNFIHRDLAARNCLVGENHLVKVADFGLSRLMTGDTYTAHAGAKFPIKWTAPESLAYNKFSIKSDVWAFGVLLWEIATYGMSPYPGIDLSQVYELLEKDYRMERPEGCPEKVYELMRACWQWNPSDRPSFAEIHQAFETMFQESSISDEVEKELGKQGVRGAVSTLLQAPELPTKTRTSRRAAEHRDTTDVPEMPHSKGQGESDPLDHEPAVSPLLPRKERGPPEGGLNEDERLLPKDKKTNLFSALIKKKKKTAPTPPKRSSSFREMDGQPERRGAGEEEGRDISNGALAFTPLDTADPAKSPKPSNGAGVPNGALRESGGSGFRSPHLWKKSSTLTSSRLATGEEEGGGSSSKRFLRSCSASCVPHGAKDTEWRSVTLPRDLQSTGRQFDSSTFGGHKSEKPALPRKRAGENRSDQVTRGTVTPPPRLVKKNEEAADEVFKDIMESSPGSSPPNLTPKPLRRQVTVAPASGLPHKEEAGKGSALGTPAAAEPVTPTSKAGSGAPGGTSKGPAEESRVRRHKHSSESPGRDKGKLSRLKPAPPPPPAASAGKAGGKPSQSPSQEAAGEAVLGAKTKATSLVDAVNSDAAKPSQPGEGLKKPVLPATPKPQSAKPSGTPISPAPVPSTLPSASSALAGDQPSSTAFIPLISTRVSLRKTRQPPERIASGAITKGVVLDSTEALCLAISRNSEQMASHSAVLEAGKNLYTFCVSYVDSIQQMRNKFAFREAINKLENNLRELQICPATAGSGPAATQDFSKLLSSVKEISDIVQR
Sequence of Ras and Rab interactor 1/Tyrosine-protein kinase ABL1 (Q13671 whole entry): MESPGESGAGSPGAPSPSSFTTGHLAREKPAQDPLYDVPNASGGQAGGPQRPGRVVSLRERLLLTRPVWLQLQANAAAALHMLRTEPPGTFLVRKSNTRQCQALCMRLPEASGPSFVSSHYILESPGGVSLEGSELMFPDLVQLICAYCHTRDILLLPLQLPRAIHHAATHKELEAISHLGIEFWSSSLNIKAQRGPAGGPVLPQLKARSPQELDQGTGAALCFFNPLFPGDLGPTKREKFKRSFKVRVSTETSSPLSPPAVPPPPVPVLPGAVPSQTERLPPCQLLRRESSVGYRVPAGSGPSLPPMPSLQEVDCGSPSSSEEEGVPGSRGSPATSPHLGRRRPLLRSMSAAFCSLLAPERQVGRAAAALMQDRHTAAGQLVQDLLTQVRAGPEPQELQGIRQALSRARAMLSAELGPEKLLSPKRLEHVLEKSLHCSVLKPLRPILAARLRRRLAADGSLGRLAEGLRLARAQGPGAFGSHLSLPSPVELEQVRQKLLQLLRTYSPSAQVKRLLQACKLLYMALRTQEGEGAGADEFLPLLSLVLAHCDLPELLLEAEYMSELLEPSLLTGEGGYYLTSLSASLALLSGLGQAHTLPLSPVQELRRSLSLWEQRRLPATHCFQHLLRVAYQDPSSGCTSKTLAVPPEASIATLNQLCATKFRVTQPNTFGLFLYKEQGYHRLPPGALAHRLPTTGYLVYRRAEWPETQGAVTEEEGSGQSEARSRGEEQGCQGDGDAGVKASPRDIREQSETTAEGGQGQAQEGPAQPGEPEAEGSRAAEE
Sequence of Serine/threonine-protein phosphatase PP1-alpha catalytic subunit (P62136 whole entry): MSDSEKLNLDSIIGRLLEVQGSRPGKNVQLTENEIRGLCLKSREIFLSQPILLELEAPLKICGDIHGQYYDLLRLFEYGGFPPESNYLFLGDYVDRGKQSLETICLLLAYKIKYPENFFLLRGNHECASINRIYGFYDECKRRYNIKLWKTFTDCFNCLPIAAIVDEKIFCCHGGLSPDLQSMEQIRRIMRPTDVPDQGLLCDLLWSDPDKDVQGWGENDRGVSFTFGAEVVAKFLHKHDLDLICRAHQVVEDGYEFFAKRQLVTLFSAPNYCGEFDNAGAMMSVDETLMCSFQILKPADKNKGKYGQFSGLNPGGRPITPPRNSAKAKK

IC50 [1]: 49 µM (not active)
IC50 [2]: 2.7 µM (active)
IC50 [4]: 11.1 µM (inactive)
Compound: CCOC(=O)C1=C(C)OC2(O)c3ccccc3C(=O)C12O (stereo not given)
IC50 [3]: 5.38 µM (active)

Compound: COC(=O)c1cc(C)nc2c1C(=O)C(=O)C=C2N1CCOCC1
EC50 [5]: 2.34 µM (active)
IC50 [6]: 3.21 µM (active)

Compound: NS(=O)(=O)c1cc(C(=O)NC2CCSc3ccccc32)ccc1Cl (stereo not given)
IC50 [7]: 2.96 µM (active) and > 100 µM (inactive)
IC50 [8]: 6.65 µM (active)
IC50 [9]: 4.11 µM (active)
AC50 [10]: 6.65 µM (active)
